Results on 4 compounds are retold here after patent publication US20230390223A1, “ADMINISTRATION OF […] COMPOSITIONS FOR TREATING NERVOUS SYSTEM DISORDERS” (PaxMedica, Inc., priority 2020, published 2023).

Series [1] in a line: Determination of suramin in plasma and brain tissue after IP or IN administration. The following applies: for Kp: male, Fmr1-knockout B6.129P2-Fmr1tm1Cgr/J, mouse, brain/plasma, other: intranasal, 100 mg/mL, read-out: Average Brain Tissue to Plasma Partitioning Ratio. The format is in vivo, mice. From the text: For the study, male Fmr1-knockout B6.129P2-Fmr1tm1Cgr/J TG mice were purchased from Jackson Laboratories, Bar Harbor, Maine. These mice were of approximately 8 weeks of age. […] The absence of FMRP in these mice induces an over-activation of RAC1, a protein of the Rho GTPase subfamily that plays a critical role in dendritic morphology and synaptic function. These B6.129P2-Fmr1tm1Cgr/J TG mice, provide an animal model for cognitive disabilities and neurodevelopmental disorders.
Mice were accommodated to the research facility for approximately a week. Body weights of all mice were recorded for health monitoring purposes.
The remaining ingredients, except the cyclodextrin are added with mixing. The cyclodextrin is then added with mixing until dissolved. The resultant solution is allowed to sit for 2 hours before using.
Blood samples were collected from all mice at the end of 12 weeks of age. Brain tissue was harvested from all mice upon sacrifice 13-14 weeks of age. Standard sample preparation and analytical techniques were used to obtain the data.

The subject of series [2] is B6.129P2-Fmr1tm1Cgr/J transgenic (TG) mice. As to the kind of experiment: Light/dark preference test (LDT), anxiety-like behavior, SmartCage. The class given is in vivo. From the text: The light/dark preference test (LDT) is one of the most widely used tests in pharmacology to measure unconditioned anxiety-like behavior in mice. The test is based on the natural aversion of mice to brightly illuminated areas and on their spontaneous exploratory behavior in response to a novel environment and light. See, Takao, K., et al., Light/dark Transition Test for Mice. J. Vis. Exp. (1), e104, doi:10.3791/104 (2006).
This study used a SmartCage™ system, which is an automated non-invasive rodent behavioral monitoring system which enables biomedical researchers to conduct a variety of neurobehavioral assays through consistent and accurate monitoring of rodent home cage activity and behavior. See, Xie X. S. et al. (2012) Rodent Behavioral Assessment in the Home Cage Using the SmartCage™™ System. In: Chen J., Xu X M., Xu Z., Zhang J. (eds) Animal Models of Acute Neurological Injuries II. Springer Protocols Handbooks. Humana Press, Totowa, NJ.
• 1. N=6 mice per group. • 2. All behavioral testing included a group of untreated wild type controls. • 3. Dosing for the various groups were as follows: • a. […] Group 2: IP saline, […], administered weekly to animals beginning at 9 weeks of age and continuing for four weeks (i.e. given at Age Weeks 9, 10, 11 and 12). • c. […] Behavioral tests for all groups (Groups 1-5) began the following day after the last day of IN dosing (Weeks 13-14 of age). • 2. Blood samples (PK testing) were collected from all mice at the end of 12 Weeks of age, just prior to starting the behavioral tests in Week 13. • 3. Brain tissue (for biochemistry testing) was harvested from all mice upon sacrifice at the conclusion of all behavioral testing at the end of 13-14 Weeks of age.
Male B6.129P2-Fmr1tm1Cgr/J TG mice were purchased from Jackson Laboratories, Bar Harbor, Maine. These mice were of approximately 8(±1) weeks of age. […] Mice accommodated to the research facility for the remainder of the week. Dosing began on the following Monday. Body weights of all mice were recorded for health monitoring purposes.
Dosing was carried out over the course of 28 days as instructed by the study sponsor. • 1. Prior to the beginning of the light/dark test, a dark box (red transparent enclosure with an opening for the mouse to enter) is placed in the SmartCage™. • 2. An individual mouse is placed in the open/non-dark box side (“Light Zone”), with its head facing away from the dark box. • 3. The mouse is then allowed to freely explore the SmartCage™ and enter the dark box “Dark Zone” at its own discretion over a 10-minute span. • 4. Anxiety-like behavior is assessed based on the SmartCage™ monitoring of time spent in the Light Zone, the number of Light Zone entries, and % Time Spent in the Light Zone. • 5. […] Wildtype Control data (collected separately prior to the beginning […] of the B6.129P2-Fmr1tm1Cgr/J TG mice) was added to the final data analysis to serve as a comparison for naive, male C57BL/6 mice.
No food or water is withheld and only natural stressors such as light are used. Four similarly calibrated SmartCages™ were used to record four mice simultaneously (example cage shown below). All Light/Dark tests were completed in one day.
Light/Dark Test Setup—Dark Box placed within the transparent homecage; homecage placed within the SmartCage™ monitoring system.

Series [3] shares this test system. As to the kind of experiment: Step through passive avoidance test (learning and memory). The class given is in vivo. From the text: The Passive Avoidance task is useful for evaluating the effect of novel chemical entities on learning and memory as well as studying the mechanisms involved in rodent models of CNS disorders. In this test, the test chamber is divided into a lighted compartment and a dark compartment, with a gate between the two. The test animals explored both compartments on the first day. The next day, they are given a mild foot shock in the dark compartment and they will learn to associate the dark compartment with the foot shock. In order to test their learning and memory, the mice are then placed back in the lighted compartment. Passive avoidance behavior of rodents is defined as the suppression of their innate preference for the dark compartment. Mice with normal learning and memory will avoid entering the dark chamber. Learning and memory from the previous day is measured by recording the latency to cross through the gate between the two compartments. See, J. David Sweatt, Chapter 4: Rodent Behavioral Learning and Memory Models, Editor: J. David Sweatt. Mechanisms of Memory (Second Edition), Academic Press, 2010, Pages 76-103, ISBN 9780123749512.
This study used a SmartCage™ system, which is an automated non-invasive rodent behavioral monitoring system which enables biomedical researchers to conduct a variety of neurobehavioral assays through consistent and accurate monitoring of rodent home cage activity and behavior. See, Xie et al, 2012.
• 1. N=6 mice per group. • 2. All behavioral testing included a group of untreated wild type (WT) controls. • 3. Dosing for the various groups were as follows: • a. […] Group 2: IP saline, […], administered weekly to animals beginning at 9 weeks of age and continuing for four weeks (i.e. given at Age Weeks 9, 10, 11 and 12). • c. […] Behavioral tests for all groups (Groups 1-5) began the following day after the last day of IN dosing (Weeks 13-14 of age). • 2. Blood samples (for PK testing) were collected from all mice at the end of Week 12 of age, just prior to starting the behavioral tests in Week 13 of age. • 3. Brain tissue (for biochemistry testing) was harvested from all mice upon sacrifice at the conclusion of all behavioral testing at the end of Week 13-14 of age.
Male B6.129P2-Fmr1tm1Cgr/J TG (TG) mice were purchased from Jackson Laboratories, Bar Harbor, Maine. These mice were of approximately 8 (±1) weeks of age. […] Mice accommodated to the research facility for the remainder of the week. Dosing began on the following Monday. Body weights of all mice were recorded for health monitoring purposes.
Dosing was carried out over the course of 28 days as instructed by the study Sponsor. […]

Series [4] shares this test system. In words: Locomotor activity test, SmartCage ~24 h recording. The class given is in vivo. The following applies: for Active time: versus WT control group.
The test system of series [5] is mouse model of epilepsy. The following applies: cited from earlier work.
[6] abbreviates: 10-minute test, suramin IN weekly (100 mg/mL, one spray per nostril, 4 weeks).
Where [7] appears, read: suramin IP 20 mg/kg weekly for four weeks.
Setting [8] is: 5-minute test, suramin IP 20 mg/kg weekly for four weeks.
The mark [9] stands for this setting: 10-minute test, group regimens: A-804598 IP 30 mg/kg/day, tangeretin IP 10 mg/kg/day, emodin+piperine PO 20 mg/kg each twice per day.

“And” between values parts separate entries of the source, which are not always exact repeats. Identical values can stand only once. Like-named read-outs stand apart in the source and are kept apart here.

For `Cc1ccc(C(=O)Nc2ccc(S(=O)(=O)O)c3cc(S(=O)(=O)O)cc(S(=O)(=O)O)c23)cc1NC(=O)c1cccc(NC(=O)Nc2cccc(C(=O)Nc3cc(C(=O)Nc4ccc(S(=O)(=O)O)c5cc(S(=O)(=O)O)cc(S(=O)(=O)O)c45)ccc3C)c2)c1` [suramin, 1,3,5-Naphthalenetrisulfonic acid, 8,8′-[carbonylbis[imino-3,1-phenylenecarbonylimino(4-methyl-3,1-phenylene)carbonylimino]]bis-], the “Average Plasma Concentration” value was 18733 ng/ml and 14.440 μM in series [1] (Group 1: IP 20 mg/kg weekly for four weeks, blood at end of 12 weeks of age, 20 mg/kg); 1637 ng/ml and 1.262 μM in series [1] (Group 3: IN formulation 100 mg/mL, one spray per nostril, one time per day for 28 days); 1578 ng/ml and 1.217 μM in series [1] (Group 4: IN formulation 100 mg/mL, one spray per nostril, every other day for 28 days); 278.7 ng/ml and 0.215 μM in series [1] (Group 5: IN formulation 100 mg/mL, one spray per nostril, one time every week for 4 weeks). For the same compound, the Kp is 0.069 in series [1] (one spray per nostril, Group 3: IN formulation 100 mg/mL, one spray per nostril, one time per day for 28 days); 0.089 in series [1] (one spray per nostril, Group 4: IN formulation 100 mg/mL, one spray per nostril, every other day for 28 days); 0.235 in series [1] (one spray per nostril, Group 5: IN formulation 100 mg/mL, one spray per nostril, one time every week for 4 weeks). The “percentage of time spent in the Light Zone” value in series [2] (setting [6]) was “higher percentage of time spent in the Light Zone”. In series [2] (setting [6]), the “total time spent in the light zone” value was around 6.5 min. The “Dark Zone entry latency” value in series [2] (all IN suramin groups (daily, every other day, weekly; 100 mg/mL, one spray per nostril, 28 days)) lay in the range of 60 to 65 s; in series [2] (setting [7]), 30 to 40 s. The “percentage of time spent in the light zone on the test day” value in series [3] (setting [8]) is recorded as “approximately 50%”. In addition, the “total light zone time on the test day” value in series [3] (setting [8]) is reported as “lower total time”. Besides, the “Dark Zone entry latency, Test Day (24 h post-foot shock)” value in series [3] (setting [7]) is “shortest latency for entering the dark compartment”. The Active time result in series [4] (all IN Suramin groups (Daily, Weekly, Every 2 Days)) was “greater activity compared to the WT control group”. In addition, in series [4] (suramin IN every 2 days, versus WT control), the Rearing count entry is on record as “comparable to the WT control group”.
In the case of `O=C(NCC1(N2CCN(c3ccccc3)CC2)CCOCC1)c1cccnc1Sc1ccccc1` [JNJ-47965567, 2-(Phenylthio)-N-[[tetrahydro-4-(4-phenyl-1-piperazinyl)-2H-pyran-4-yl]methyl]-3-pyridinecarboxamide], the “effect on epileptic seizures” value in series [5] is recorded as “suppress epileptic seizures”.
`C[C@H](N/C(=N/C#N)Nc1cccc2ncccc12)c1ccccc1` [Formulation A-804598, N-Cyano-N″-[(1S)-1-phenylethyl]-N′-5-quinolinyl-guanidine]: the “number of Light Zone entries” value in series [2] (10-minute test, each group at its regimen, compared to WT mice) is reported as “significantly lower number of light zone entries”.
For the compound `COc1ccc(-c2cc(=O)c3c(OC)c(OC)c(OC)c(OC)c3o2)cc1` [Tangeretin, 5,6,7,8-tetramethoxy-2-(4-methoxyphenyl)-4H-1-benzopyran-4-one], in series [2] (setting [9]), the “percentage of time spent in the Light Zone” value was “higher percentage of time spent in the Light Zone” and the “total time spent in the light zone” value is around 6.5 min. Further, the “total number of Dark Zone Entries” value in series [3] (test day, tangeretin IP 10 mg/kg/day, emodin+piperine PO 20 mg/kg each twice per day, other groups at their regimens) was “one”. In addition, in series [4] (A-804598 IP 30 mg/kg/day, tangeretin IP 10 mg/kg/day), the Active time entry was “greater activity compared to the WT control group”.
